Assay results: patent US12637440B2, “Amide derivative useful as diacylglycerol acyltransferase 2 inhibitor, and use thereof” (LG CHEM, LTD., priority 2019, dated 2026)

Molecular target: T1, Recombinant human DGAT2 protein (Homo sapiens, UniProt Q96PD7)
T1 construct: FLAG (DYKDDDDK); (N); made in house; host or cells: Sf-21 insect cells (BacPAK baculovirus system); used as a membrane preparation
T1 sequence (Q96PD7 1-388): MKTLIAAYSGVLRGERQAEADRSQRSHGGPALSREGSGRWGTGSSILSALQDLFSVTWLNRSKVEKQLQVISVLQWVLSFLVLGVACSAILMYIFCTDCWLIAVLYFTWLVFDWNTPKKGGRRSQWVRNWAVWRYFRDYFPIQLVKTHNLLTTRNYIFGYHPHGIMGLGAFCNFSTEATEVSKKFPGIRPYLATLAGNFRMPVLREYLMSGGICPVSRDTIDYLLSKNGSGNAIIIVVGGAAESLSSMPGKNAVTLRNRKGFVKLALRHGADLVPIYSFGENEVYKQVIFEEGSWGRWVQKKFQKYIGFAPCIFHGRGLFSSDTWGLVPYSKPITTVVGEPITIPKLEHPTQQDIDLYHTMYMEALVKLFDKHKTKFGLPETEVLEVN
Assay: Measurement of inhibitory effect against DGAT2 enzyme activity (SPA, Phospholipid FlashPlate, [14C]-TG production)
Format: biochemical
Conditions: concentration inhibiting [14C]-labeled triacyl glycerol (TG) production by 50%; 2 μg DGAT2-membrane protein from Sf-21 cells, 37° C.
Experimental: Experimental Example: Measurement of Inhibitory Effect Against DGAT2 Enzyme Activity
In order to prepare the pBacPAK9-DGAT2, which is DGAT2 expression vector, the human DGAT2 gene amplified by polymerase chain reaction (PCR) was cloned into the EcoR1 and Xho1 sites of the pBacPAK9 (clonctech) vector. The nucleotide sequence of the primers used in PCR was the forward primer 5′ […] and the reverse primer 5′ […]. The composition of the reaction solution was to contain 50 ng of cDNA clone (OriGene), 200 μM of dATP, dCTP, dTTP, dGTP, 200 nM of each primer, 1 unit of Tag DNA Polymerase (Toyobo), 1×PCR buffer, and the final volume was adjusted to 20 μl. The reaction conditions were denatured at 95° C. for 5 minutes, followed by 30 times of 94° C. for 20 seconds, 60° C. for 20 seconds, and 72° C. for 90 seconds, followed by further reaction at 72° C. for 7 minutes.
Recombinant human DGAT2 protein was expressed in Sf-21 cells, which are insect cells, by using the BacPack baculovirus expression system (Clontech). The brief manufacturing process is as follows. First, the pBacPAK9-DGAT2 expression vector was transfected with BacPAK6 virus DNA (Bsu36I digest) into sf21 cells using Bacfectin to prepare a recombinant DGAT2 expressing baculovirus. The thus prepared baculovirus was infected with Sf-21 cells at 10 MOI (multiplicity of infection), and after 72 hours, infected insect cells were collected and membrane proteins were isolated. For membrane protein separation, the cell pellet was dissolved in a sucrose solution containing 250 mM sucrose, 10 mM Tris (pH 7.4), and 1 mM ethylenediamine-tetraacetic acid (EDTA), and then homogenized by using a dounce homogenizer, and the supernatant was taken by centrifuging at 600×g for 15 minutes, and centrifuged at 100,000×g for 1 hour to discard the supernatant, and the remaining pellet was resuspended in 20 mM HEPES buffer (pH 7.4). The prepared DGAT2 overexpressing membrane protein was dispensed in 100 μl and stored at −80° C. until use. Protein concentration was quantified by using the BCA Protein Assay Kit (Thermo Scientific).
In vitro DGAT2 analysis was performed using a Phospholipid Flash Plate (PerkinElmer) based on the principle of SPA (Scintillation Proximity Assay). First, DGAT2 inhibition compounds serially diluted 5 times from 3 nM to 10 μM (final concentration, 1% DMSO) were mixed in a buffer solution containing 2 μg DGAT2-membrane protein and 20 mM HEPES, 20 mM MgCl2, 1 mg/mL BSA, 50 μM 1,2 sn-oleoyl glycerol (Sigma), put in a 96-well flash plate (FlashPlate) and reacted at 37° C. for 20 minutes, and then 1 μM [14C] ole oil CoA (PerkinElmer, NEC651050UC) was added to be a final volume of 100 μL and further reacted at 37° C. for 15 minutes. After the enzymatic reaction was completed, 100 μL of isopropanol was added, the plate was sealed with a film, and the plate was shaken slowly in a plate shaker. The next day, the amplified scintillation signal (cpm) in Topcounter (Packard) was measured to measure the degree of production of [14C]-labeled triacyl glycerol (TG) as a reaction product. The measured value when the compound was not treated was used as a positive control, and the measured value of the compound treated group was calculated as a relative % to measure the inhibition effect of the compound on TG production.

SMILES | IC50 [nM]
CCOc1ccccc1O[C@@H]1CCCN(c2cncc(NC(=O)c3cc(F)c(N4CCC(CC(=O)O)CC4)c(F)c3)n2)C1 [Example 58] | 7500
CCOc1ccccc1O[C@@H]1CCCN(c2cncc(NC(=O)C3CCN(c4ccc(C(=O)O)cc4)CC3)n2)C1 [Example 59, (R)-4-(4-((6-(3-(2-ethoxyphenoxy)piperidin-1-yl)pyrazin-2-yl)carbamoyl)piperidin-1-yl)benzoic acid] | 1000
CCOc1ccccc1O[C@@H]1CCCN(c2cncc(NC(=O)c3ccc(Oc4ccc(C(=O)O)cc4)cc3)n2)C1 [Example 62, (R)-4-(4-((6-(3-(2-ethoxyphenoxy)piperidin-1-yl)pyrazin-2-yl)carbamoyl)phenoxy)benzoic acid] | 2100
CCOc1ccccc1O[C@@H]1CCCN(c2cccc(NC(=O)Cc3ccc(CC(=O)O)cc3)n2)C1 [Example 66, (R)-2-(4-(2-((6-(3-(2-ethoxyphenoxy)piperidin-1-yl)pyridin-2-yl)amino)-2-oxoethyl)phenyl)acetic acid] | 2700
CCOc1ccccc1O[C@@H]1CCCN(c2cncc(NC(=O)Nc3ccc(CC(=O)O)cc3)n2)C1 [Example 67, (R)-2-(4-(3-(6-(3-(2-ethoxyphenoxy)piperidin-1-yl)pyrazin-2-yl)ureido)phenyl)acetic acid] | 6100
CCOc1ccccc1O[C@@H]1CCCN(c2cncc(NC(=O)Cc3ccc(C(C)(C)C(=O)O)cc3)n2)C1 [Example 69, (R)-2-(4-(2-((6-(3-(2-ethoxyphenoxy)piperidin-1-yl)pyrazin-2-yl)amino)-2-oxoethyl)phenyl)-2-methylpropanoic acid] | 970
CCOc1ccccc1O[C@@H]1CCCN(c2cc(C(F)(F)F)nc(NC(=O)Cc3ccc(CC(C)(C)C(=O)O)cc3)n2)C1 [Example 72] | 1800
C=C(CNc1ccc(CCC(=O)O)cc1)C(=O)Nc1cncc(N2CCC[C@@H](Oc3ccccc3OCC)C2)n1 [Example 74, (R)-3-(4-((2-((6-(3-(2-ethoxyphenoxy)piperidin-1-yl)pyrazin-2-yl)carbamoyl)allyl)amino)phenyl)propanoic acid] | 1300
CCOc1ccccc1O[C@@H]1CCCN(c2cncc(NC(=O)C3CCN(c4ncc(C(=O)O)cn4)CC3)n2)C1 [Example 75, (R)-2-(4-((6-(3-(2-ethoxyphenoxy)piperidin-1-yl)pyrazin-2-yl)carbamoyl)piperidin-1-yl)pyrimidine-5-carboxylic acid] | 1200
CCOc1cccnc1O[C@@H]1CCCN(c2ccnc(NC(=O)C(C)(C)c3ccc(CC(C)(C)C(=O)O)cc3)n2)C1 [Example 78, (R)-3-(4-(1-((4-(3-((3-ethoxypyridin-2-yl)oxy)piperidin-1-yl)pyrimidin-2-yl)amino)-2-methyl-1-oxopropan-2-yl)phenyl)-2,2-dimethylpropanoic acid] | 2500
CCOc1ccccc1O[C@@H]1CCCN(c2cncc(NC(=O)C3CCN(c4ccc(CC(=O)O)cc4)CC3)n2)C1 [Example 79, (R)-2-(4-(4-((6-(3-(2-ethoxyphenoxy)piperidin-1-yl)pyrazin-2-yl)carbamoyl)piperidin-1-yl)phenyl)acetic acid] | 930
CCOc1ccccc1O[C@@H]1CCCN(c2cncc(NC(=O)C3CCN(c4nnn(CC(=O)O)n4)CC3)n2)C1 [Example 82, (R)-2-(5-(4-((6-(3-(2-ethoxyphenoxy)piperidin-1-yl)pyrazin-2-yl)carbamoyl)piperidin-1-yl)-2H-tetrazol-2-yl)acetic acid] | 6800
CCOc1ccccc1O[C@@H]1CCCN(c2cncc(NC(=O)C3CCN(C(=O)CCC(=O)O)CC3)n2)C1 [Example 83, (R)-4-(4-((6-(3-(2-ethoxyphenoxy)piperidin-1-yl)pyrazin-2-yl)carbamoyl)piperidin-1-yl)-4-oxobutanoic acid] | > 10000
CCOc1ccccc1O[C@@H]1CCCN(c2cncc(NC(=O)C3CCN(CC(=O)O)CC3)n2)C1 [Example 84, (R)-2-(4-((6-(3-(2-ethoxyphenoxy)piperidin-1-yl)pyrazin-2-yl)carbamoyl)piperidin-1-yl)acetic acid] | > 10000

Now those with a lower IC50, led by results:

IC50 [nM] | SMILES
420 | CCOc1ccccc1O[C@@H]1CCCN(c2cncc(NC(=O)CCc3ccc(OC(C)(C)C(=O)O)cc3)n2)C1 [Example 60, (R)-2-(4-(3-((6-(3-(2-ethoxyphenoxy)piperidin-1-yl)pyrazin-2-yl)amino)-3-oxopropyl)phenoxy)-2-methylpropanoic acid]
150 | CCOc1ccccc1O[C@@H]1CCCN(c2cncc(NC(=O)CCc3ccc(CCC(=O)O)cc3)n2)C1 [Example 61, (R)-3-(4-(3-((6-(3-(2-ethoxyphenoxy)piperidin-1-yl)pyrazin-2-yl)amino)-3-oxopropyl)phenyl)propanoic acid]
140 | CCOc1ccccc1O[C@@H]1CCCN(c2cncc(NC(=O)Cc3ccc(C[C@@H](C)C(=O)O)cc3)n2)C1 [Example 63]
120 | CCOc1ccccc1O[C@@H]1CCCN(c2cncc(NC(=O)Cc3ccc(C[C@H](C)C(=O)O)cc3)n2)C1 [Example 64]
630 | CCOc1ccccc1O[C@@H]1CCCN(c2cccc(NC(=O)Cc3ccc(C(C)(C)C(=O)O)cc3)n2)C1 [Example 68, (R)-2-(4-(2-((6-(3-(2-ethoxyphenoxy)piperidin-1-yl)pyridin-2-yl)amino)-2-oxoethyl)phenyl)-2-methylpropanoic acid]
350 | CCOc1ccccc1O[C@@H]1CCCN(c2cccc(NC(=O)CCc3ccc(C(C)(C)C(=O)O)cc3)n2)C1 [Example 70, (R)-2-(4-(3-((6-(3-(2-ethoxyphenoxy)piperidin-1-yl)pyridin-2-yl)amino)-3-oxopropyl)phenyl)-2-methylpropanoic acid]
250 | CCOc1ccccc1O[C@@H]1CCCN(c2cccc(NC(=O)Cc3ccc(CC(C)(C)C(=O)O)cc3)n2)C1 [Example 71]
310 | CCOc1ccccc1O[C@@H]1CCCN(c2cncc(NC(=O)C(C)(C)c3ccc(CCC(=O)O)cc3)n2)C1 [Example 73, (R)-3-(4-(1-((6-(3-(2-ethoxyphenoxy)piperidin-1-yl)pyrazin-2-yl)amino)-2-methyl-1-oxopropan-2-yl)phenyl)propanoic acid]
130 | CCOc1cccnc1O[C@@H]1CCCN(c2cncc(NC(=O)[C@@H]3CCCN(c4cccc(CC(C)(C)C(=O)O)c4)C3)n2)C1 [Example 76]
410 | CCOc1ccccc1O[C@@H]1CCCN(c2ccnc(NC(=O)C(C)(C)c3ccc(CC(C)(C)C(=O)O)cc3)n2)C1 [Example 77, (R)-3-(4-(1-((4-(3-(2-ethoxyphenoxy)piperidin-1-yl)pyrimidin-2-yl)amino)-2-methyl-1-oxopropan-2-yl)phenyl)-2,2-dimethylpropanoic acid]
740 | CCOc1ccccc1O[C@@H]1CCCN(c2cncc(NC(=O)C3CCN(c4ccc(C(C)(C)C(=O)O)cn4)CC3)n2)C1 [Example 81, (R)-2-(6-(4-((6-(3-(2-ethoxyphenoxy)piperidin-1-yl)pyrazin-2-yl)carbamoyl)piperidin-1-yl)pyridin-3-yl)-2-methylpropanoic acid]
